# Test results taken from ChEMBL document CHEMBL4251572, “Novel aminopyrimidinyl benzimidazoles as potentially antimicrobial agents: Design, synthesis and biological evaluation” (Eur J Med Chem, 2018).
# Assays:
# [1] = tested on: Staphylococcus aureus; experiment: Antibacterial activity against Staphylococcus aureus ATCC 25923 after 24 hrs by micro broth dilution assay; type: functional; conditions: ATCC 25923, 24 h
# [2] = tested on: Pichia norvegensis; experiment: Antifungal against Candida mycoderma after 24 hrs by two fold serial dilution method; type: functional
# [3] = tested on: Escherichia coli; experiment: Antibacterial activity against Escherichia coli DH52 after 24 hrs by micro broth dilution assay; type: functional; conditions: DH52, 24 h
# [4] = tested on: Cyberlindnera jadinii; experiment: Antifungal against Candida utilis after 24 hrs by two fold serial dilution method; type: functional; conditions: Williopsis jadinii
# [5] = tested on: Pseudomonas aeruginosa; experiment: Antibacterial activity against Pseudomonas aeruginosa after 24 hrs by micro broth dilution assay; type: functional
# [6] = tested on: Aspergillus flavus; experiment: Antifungal against Aspergillus flavus after 24 hrs by two fold serial dilution method; type: functional
# [7] = tested on: Candida albicans; experiment: Antifungal against Candida albicans ATCC 76615 after 24 hrs by two fold serial dilution method; type: functional; conditions: ATCC 76615, 24 h
# [8] = tested on: Saccharomyces cerevisiae; experiment: Antifungal against Saccharomyces cerevisiae after 24 hrs by two fold serial dilution method; type: functional
# [9] = tested on: Escherichia coli; experiment: Antibacterial activity against Escherichia coli JM109 after 24 hrs by micro broth dilution assay; type: functional; conditions: JM109, 24 h
# [10] = tested on: Bacillus; experiment: Antibacterial activity against Bacillus proteus ATCC 13315 after 24 hrs by micro broth dilution assay; type: functional; conditions: ATCC 13315, 24 h
# [11] = tested on: Shigella dysenteriae; experiment: Antibacterial activity against Shigella dysenteriae after 24 hrs by micro broth dilution assay; type: functional
# [12] = tested on: Salmonella typhi; experiment: Antibacterial activity against Bacillus typhi after 24 hrs by micro broth dilution assay; type: functional, Salmonella enterica subsp. enterica serovar Typhi; conditions: Salmonella enterica
# [13] = tested on: Staphylococcus aureus; experiment: Antibacterial activity against methicillin-resistant Staphylococcus aureus N315 after 24 hrs by micro broth dilution assay; type: functional; conditions: N315, 24 h
# [14] = tested on: Bacillus subtilis; experiment: Antibacterial activity against Bacillus subtilis after 24 hrs by micro broth dilution assay; type: functional
# [15] = tested on: Micrococcus luteus; experiment: Antibacterial activity against Micrococcus luteus ATCC4698 after 24 hrs by micro broth dilution assay; type: functional; conditions: ATCC4698, 24 h
SMILES,MIC [1] [µg/mL],MIC [2] [µg/mL],MIC [3] [µg/mL],MIC [4] [µg/mL],MIC [5] [µg/mL],MIC [6] [µg/mL],MIC [7] [µg/mL],MIC [8] [µg/mL],MIC [9] [µg/mL],MIC [10] [µg/mL],MIC [11] [µg/mL],MIC [12] [µg/mL],MIC [13] [µg/mL],MIC [14] [µg/mL],MIC [15] [µg/mL]
CCCCCCCCn1c(-c2cc(-c3ccc(Cl)cc3)nc(N)n2)nc2ccccc21,256,8,512,8,32,256,8,8,512,256,32,4,128,2,16
CCCCCCCn1c(-c2cc(-c3ccc(F)cc3)nc(N)n2)nc2ccccc21,512,512,16,8,512,16,16,16,256,128,512,16,256,2,16
CCCCCCCn1c(C(=O)/C=C/c2ccc(Cl)cc2Cl)nc2ccccc21,128,512,512,512,512,512,512,512,512,512,256,512,512,512,512
CCCCn1c(-c2cc(-c3ccc(Cl)cc3Cl)nc(N)n2)nc2ccccc21,512,32,512,64,128,512,512,32,32,512,256,512,512,512,16
CCCCn1c(C(=O)/C=C/c2ccc(F)cc2)nc2ccccc21,4,64,64,16,0.5,128,16,512,16,512,4,8,8,4,8
CCCCCCCCn1c(-c2cc(-c3ccc(F)cc3)nc(N)n2)nc2ccccc21,256,64,512,8,512,128,256,16,256,512,512,512,256,256,32
CCCCCCCn1c(C(=O)/C=C/c2ccc(F)cc2)nc2ccccc21,512,512,512,> 512,512,512,512,512,128,512,512,512,64,512,512
CCCCCCCCn1c(C(=O)/C=C/c2ccc(Cl)cc2Cl)nc2ccccc21,512,512,512,512,512,512,512,512,256,512,512,512,64,512,512
CCCCn1c(C(=O)/C=C/c2ccc(Cl)cc2)nc2ccccc21,64,256,512,512,512,512,256,16,256,128,32,512,8,512,512
CCCCCCCCn1c(-c2cc(-c3ccc(C)cc3)nc(N)n2)nc2ccccc21,512,512,8,16,512,512,512,128,128,512,512,512,512,512,16
CCCCCCCCn1c(C(=O)/C=C/c2ccc(F)cc2)nc2ccccc21,512,512,8,64,512,256,512,512,512,512,512,128,512,16,32
CCCCCCCn1c(-c2cc(-c3ccc(Cl)cc3)nc(N)n2)nc2ccccc21,128,16,16,4,64,256,128,8,512,512,4,8,8,2,512
CCCCCCCCn1c(C(=O)/C=C/c2ccc(Cl)cc2)nc2ccccc21,512,512,8,512,512,32,4,4,512,512,512,128,512,512,512
O=C(/C=C/c1ccc(Cl)cc1Cl)c1nc2ccccc2[nH]1,128,512,512,64,512,512,256,16,128,512,256,512,256,64,512
CCCCCCCn1c(C(=O)/C=C/c2ccc(Cl)cc2)nc2ccccc21,256,512,32,512,512,64,512,512,512,512,512,512,512,256,8
CCCCCCn1c(C(=O)/C=C/c2ccc(Cl)cc2Cl)nc2ccccc21,32,512,512,512,512,512,512,512,512,512,512,512,256,512,512
OC(Cn1cncn1)(Cn1cncn1)c1ccc(F)cc1F [FLUCONAZOLE],–,4,–,16,–,256,1,8,–,–,–,–,–,–,–
CCCCCCn1c(C(=O)/C=C/c2ccc(C)cc2)nc2ccccc21,512,512,512,512,512,512,512,512,512,512,512,512,16,512,512
CCCCn1c(C(=O)/C=C/c2ccc(Cl)cc2Cl)nc2ccccc21,512,128,512,512,512,512,256,16,256,512,16,512,8,64,512
CCCCCCCn1c(C(=O)/C=C/c2ccc(C)cc2)nc2ccccc21,4,512,512,512,512,512,16,512,512,512,512,512,8,512,512
CCCCCCCCn1c(-c2cc(-c3ccc(Cl)cc3Cl)nc(N)n2)nc2ccccc21,256,512,512,8,512,512,512,16,512,4,512,512,256,512,32
CCCCn1c(C(=O)/C=C/c2ccc(C)cc2)nc2ccccc21,32,128,512,512,16,4,16,4,128,512,128,128,64,128,32
